Patent US10597388B2, “Pyridazinone herbicides” (FMC CORPORATION, priority 2014, dated 2020)

Columns and labels:
Assay type in all cases: in vivo
[1] = tested on: Russian thistle (Salsola kali); experiment: Test D controlled growth environment herbicide test, pre- and postemergence
From the text: (§1) Seeds of plant species selected from bluegrass (annual bluegrass, Poa annua), blackgrass (Alopecurus myosuroides), Canada thistle (Cirsium arvense), canarygrass (Phalaris minor), chickweed (common chickweed, Stellaria media), geranium, cutleaf (cutleaf geranium, Geranium dissectum), galium (catchweed bedstraw, Galium aparine), bromegrass, downy (downy bromegrass, Bromus tectorum), field poppy (Papaver rhoeas), field violet (Viola arvensis), foxtail, green (green foxtail, Setaria viridis), deadnettle (henbit deadnettle, Lamium amplexicaule), ryegrass, Italian (Italian ryegrass, Lolium multiflorum), kochia (Kochia scoparia), lambsquarters (Chenopodium album), oilseed rape (Brassica napus), pigweed (Amaranthus retroflexus), chamomile (scentless chamomile, Matricaria inodora), Russian thistle (Salsola kali), speedwell (bird's-eye speedwell, Veronica persica), barley, spring (spring barley, Hordeum vulgare), wheat, spring (spring wheat, Triticum aestivum), buckwheat, wild (wild buckwheat, Polygonum convolvulus), mustard, wild (wild mustard, Sinapis arvensis), oat, wild (wild oat, Avena fatua), radish, wild (wild radish, Raphanus raphanistrum), windgrass (Apera spica-venti), barley, winter (winter barley, Hordeum vulgare), and wheat, winter (winter wheat, Triticum aestivum) were planted into a silt loam soil and treated preemergence with test chemicals formulated in a non-phytotoxic solvent mixture which included a surfactant.
(§2) At the same time, these species were planted in pots containing Redi-Earth® planting medium (Scotts Company, 14111 Scottslawn Road, Marysville, Ohio 43041) comprising spaghnum peat moss, vermiculite, wetting agent and starter nutrients and treated with postemergence applications of the test chemicals formulated in the same manner. Plants ranged in height from 2 to 18 cm (1- to 4-leaf stage). Treated plants and controls were maintained in a controlled growth environment for 14 to 21 d after which time all species were compared to controls and visually evaluated. Plant response ratings, summarized in Table D, are based on a scale of 0 to 100 where 0 is no effect and 100 is complete control. A dash (-) response means no test result.

[2] = tested on: barley, winter (winter barley, Hordeum vulgare); experiment: as above
From the text: as §1, §2

[3] = tested on: bluegrass (annual bluegrass, Poa annua); experiment: as above
From the text: as §1, §2

[4] = tested on: field violet (Viola arvensis); experiment: as above
From the text: as §1, §2

[5] = tested on: oat, wild (wild oat, Avena fatua); experiment: as above
From the text: as §1, §2

[6] = tested on: pigweed (Amaranthus retroflexus); experiment: as above
From the text: as §1, §2

[7] = tested on: radish, wild (wild radish, Raphanus raphanistrum); experiment: as above
From the text: as §1, §2

[8] = tested on: speedwell (bird's-eye speedwell, Veronica persica); experiment: as above
From the text: as §1, §2

[9] = tested on: wheat, winter (winter wheat, Triticum aestivum); experiment: as above
From the text: as §1, §2

[10] = tested on: windgrass (Apera spica-venti); experiment: as above
From the text: as §1, §2

[11] = tested on: waterhemp_RES2 (ALS & HPPD resistant common waterhemp, Amaranthus rudis); experiment: Test E greenhouse herbicide test, postemergence
Outline: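 Visual injury scored 0 (no effect) to 100 (complete control) versus untreated plants, 14 to 21 d after treatment in the greenhouse. Plants were treated postemergence at 1- to 4-leaf stage, 2–18 cm height, in peat-moss/vermiculite medium.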

[12] = Postemergence, 31 g ai/ha, scale 0 to 100 (0 no effect, 100 complete control)
[13] = Postemergence, 125 g ai/ha, visual rating on scale 0 (no effect) to 100 (complete control), 14 to 21 d
[14] = Postemergence, 250 g ai/ha, scale 0 to 100 (0 no effect, 100 complete control)
[15] = Preemergence, 125 g ai/ha, scale 0 to 100 (0 no effect, 100 complete control)
[16] = Preemergence, 250 g ai/ha, scale 0 to 100, 0 no effect, 100 complete control
[17] = postemergence, 62 g ai/ha, scale 0 to 100, 0 no effect, 100 complete control
[18] = Preemergence, 62 g ai/ha, scale 0 to 100 (0 no effect, 100 complete control)

CCCC(=O)Oc1c(C)nn(C)c(=O)c1-c1c(C)sc2ccc(C)cc12 [Compound 105]
Russian Thistle plant response rating [1, 12]: 40 | Plant response rating, Russian Thistle [1, 13]: 50 | Plant response rating, Russian Thistle [1, 14]: 50 | Plant response rating (scale of 0 to 100), Russian Thistle ([1]; Preemergence, 31 g ai/ha): 0 | Plant response rating (scale of 0 to 100), Russian Thistle ([1]; Preemergence, 62 g ai/ha): 60 | Plant response rating, Russian Thistle [1, 15]: 70 | Plant response rating, Russian Thistle [1, 16]: 90 | Plant response rating, Russian Thistle [1, 17]: 45 | Barley, Winter plant response rating [2, 12]: 0 | Plant response rating, Barley, Winter [2, 13]: 10 | Plant response rating, Barley, Winter [2, 14]: 15 | Plant response rating (scale of 0 to 100), Barley, Winter ([2]; Preemergence, 31 g ai/ha): 5 | Plant response rating, Barley, Winter [2, 18]: 10 | Plant response rating, Barley, Winter [2, 15]: 10 | Plant response rating, Barley, Winter [2, 16]: 25 | Plant response rating, Barley, Winter [2, 17]: 10 | Bluegrass plant response rating [3, 12]: 10 | Plant response rating, Bluegrass [3, 13]: 20 | Plant response rating, Bluegrass [3, 14]: 25 | Plant response rating (scale of 0 to 100), Bluegrass ([3]; Preemergence, 31 g ai/ha): 25 | Plant response rating, Bluegrass [3, 18]: 30 | Plant response rating, Bluegrass [3, 15]: 60 | Plant response rating, Bluegrass [3, 16]: 75 | Plant response rating, Bluegrass [3, 17]: 10 | Field Violet plant response rating [4, 12]: 85 | Plant response rating, Field Violet [4, 13]: 95 | Plant response rating, Field Violet [4, 14]: 100 | Plant response rating (scale of 0 to 100), Field Violet ([4]; Preemergence, 31 g ai/ha): 100 | Plant response rating (scale of 0 to 100), Field Violet ([4]; Preemergence, 62 g ai/ha): 100 | Plant response rating, Field Violet [4, 15]: 100 | Plant response rating, Field Violet [4, 16]: 100 | Plant response rating, Field Violet [4, 17]: 90 | Oat, Wild plant response rating [5, 12]: 80 | Plant response rating, Oat, Wild [5, 13]: 95 | Plant response rating, Oat, Wild [5, 14]: 100 | Plant response rating (scale of 0 to 100), Oat, Wild ([5]; Preemergence, 31 g ai/ha): 80 | Plant response rating (scale of 0 to 100), Oat, Wild ([5]; Preemergence, 62 g ai/ha): 80 | Plant response rating, Oat, Wild [5, 15]: 85 | Plant response rating, Oat, Wild [5, 16]: 100 | Plant response rating, Oat, Wild [5, 17]: 85 | Pigweed plant response rating [6, 12]: 85 | Plant response rating, Pigweed [6, 13]: 100 | Plant response rating, Pigweed [6, 14]: 100 | Plant response rating (scale of 0 to 100), Pigweed ([6]; Preemergence, 31 g ai/ha): 100 | Plant response rating (scale of 0 to 100), Pigweed ([6]; Preemergence, 62 g ai/ha): 100 | Plant response rating, Pigweed [6, 15]: 100 | Plant response rating, Pigweed [6, 16]: 100 | Plant response rating, Pigweed [6, 17]: 100 | Radish, Wild plant response rating [7, 12]: 5 | Plant response rating, Radish, Wild [7, 13]: 20 | Plant response rating, Radish, Wild [7, 14]: 70 | Plant response rating (scale of 0 to 100), Radish, Wild ([7]; Preemergence, 62 g ai/ha): 15 | Plant response rating, Radish, Wild [7, 15]: 35 | Plant response rating, Radish, Wild [7, 16]: 55 | Plant response rating, Radish, Wild [7, 17]: 15 | Speedwell plant response rating [8, 12]: 45 | Plant response rating, Speedwell [8, 13]: 65 | Plant response rating, Speedwell [8, 14]: 75 | Plant response rating, Speedwell [8, 17]: 50 | Wheat, Winter plant response rating [9, 12]: 0 | Plant response rating, Wheat, Winter [9, 13]: 10 | Plant response rating, Wheat, Winter [9, 14]: 20 | Plant response rating (scale of 0 to 100), Wheat, Winter ([9]; Preemergence, 31 g ai/ha): 0 | Plant response rating (scale of 0 to 100), Wheat, Winter ([9]; Preemergence, 62 g ai/ha): 0 | Plant response rating, Wheat, Winter [9, 15]: 5 | Plant response rating, Wheat, Winter [9, 16]: 5 | Plant response rating, Wheat, Winter [9, 17]: 5 | Windgrass plant response rating [10, 12]: 60 | Plant response rating, Windgrass [10, 13]: 80 | Plant response rating, Windgrass [10, 14]: 85 | Plant response rating (scale of 0 to 100), Windgrass ([10]; Preemergence, 31 g ai/ha): 75 | Plant response rating (scale of 0 to 100), Windgrass ([10]; Preemergence, 62 g ai/ha): 80 | Plant response rating, Windgrass [10, 15]: 80 | Plant response rating, Windgrass [10, 16]: 95 | Plant response rating, Windgrass [10, 17]: 70 | Plant response rating, Waterhemp_RES2 ([11]; 16 g ai/ha, visual, scale 0 no effect to 100 complete control): 40 | Plant response rating, Waterhemp_RES2 ([11]; 31 g ai/ha, visual, scale 0 no effect to 100 complete control): 50 | Plant response rating, Waterhemp_RES2 ([11]; 125 g ai/ha, scale 0 to 100 (0 no effect, 100 complete control)): 70
